Experimental data as given in US8658383B2, “Sweet taste receptor-expressing construct, cell body expressing the same, and utilization thereof” (T. Hasegawa Co., Ltd., priority 2009, dated 2014).
Residues, ends and D or L forms follow the SMILES beside them.

Biological target: T1, hT1R3 (Homo sapiens, UniProt Q7RTX0)
T1 construct: The sweet taste receptor subunits T1R2 and T1R3 include an entire part of each subunit
T1 sequence (Q7RTX0 21-852): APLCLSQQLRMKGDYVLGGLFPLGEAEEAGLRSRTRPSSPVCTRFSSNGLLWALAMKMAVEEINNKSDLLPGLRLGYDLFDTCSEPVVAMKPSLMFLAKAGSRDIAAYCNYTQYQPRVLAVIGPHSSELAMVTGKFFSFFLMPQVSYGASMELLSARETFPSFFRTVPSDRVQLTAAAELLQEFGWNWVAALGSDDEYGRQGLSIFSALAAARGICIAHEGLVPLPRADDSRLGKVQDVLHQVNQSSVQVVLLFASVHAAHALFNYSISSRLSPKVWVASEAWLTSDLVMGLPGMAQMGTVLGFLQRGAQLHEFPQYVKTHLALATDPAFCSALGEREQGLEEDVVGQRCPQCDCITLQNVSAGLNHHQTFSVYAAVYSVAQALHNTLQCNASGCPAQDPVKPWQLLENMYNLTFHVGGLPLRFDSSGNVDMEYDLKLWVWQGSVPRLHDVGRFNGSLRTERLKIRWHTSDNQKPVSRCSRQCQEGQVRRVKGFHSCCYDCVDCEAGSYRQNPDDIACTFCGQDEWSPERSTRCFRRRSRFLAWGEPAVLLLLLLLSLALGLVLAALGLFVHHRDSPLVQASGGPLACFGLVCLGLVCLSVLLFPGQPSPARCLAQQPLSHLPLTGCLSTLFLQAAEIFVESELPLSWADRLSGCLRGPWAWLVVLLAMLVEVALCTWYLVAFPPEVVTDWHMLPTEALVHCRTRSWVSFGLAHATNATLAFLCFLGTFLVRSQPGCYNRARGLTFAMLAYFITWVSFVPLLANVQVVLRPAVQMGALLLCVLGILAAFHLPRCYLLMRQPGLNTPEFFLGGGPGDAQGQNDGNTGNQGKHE
Assay: Fluorescent microscope calcium imaging (Fura-2 AM) of comparison cultured cell strain (D) expressing hT1R3 and hG16gust44 only
Format: cell-based
Conditions: Aspartame final concentration 10 mM, FIG. 11
Protocol: Each of the cultured cell strains (A) to (C) prepared in Example 4 was loaded with a fluorescent calcium indicator Fura-2 AM, and cells were prepared to take them in. Cells loaded with Fura-2 AM were excited at 340 nm and 380 nm, and a fluorescent image observed at 510 nm was taken using a fluorescent microscope and a CCD camera. While the image was taken, Aspartame at a final concentration of 10 mM was administered to cells and, thereafter, the image was continuously taken. From the field of the taken image, 100 cells were randomly selected, and the response cell number was counted.
As comparison, using an expression construct consisting of pcDNA5/FRT having a sequence in which a cDNA encoding hT1R3 and a cDNA encoding hG16gust44 are connected downstream of a CMV promoter, so that an IRES sequence is flanked by those cDNAs (FIG. 10), a cultured cell strain (D) was prepared similarly as in Example 4, and the response cell number was subjected to counting as described above.

cell response (response cell number of 100 randomly selected cells): cell response was not observed
Compound: COC(=O)[C@H](Cc1ccccc1)NC(=O)[C@@H](N)CC(=O)O [aspartame] (H-Asp-Phe-OMe)
